The values below come from US8377883B2, “Peptide for anti-angiogenesis and use thereof” (Beijing Institute for Cancer Research, priority 2006, dated 2013).

Assay [1] has as its system mice liver cancer H22 cells. Nature of the assay: Tumor suppression by FpAT and derivative peptides in liver cancer H22 tumor-bearing mouse model (Example 14). Type of assay: in vivo, mice of Kunming strain. The conditions noted are these: peptides 50 μg/100 μl PBS/injection, angulus oculi medialis vein daily, 7 times; CTX 80 mg/KG; tumors weighed. As for the experimental part: Ninety 5-week old mice of Kunming strain purchased from Animal Center Of Chinese Academy Of Medical Sciences were inoculated subcutaneously in forelimb with mice liver cancer H22 cells (National Institute for the Control of Pharmaceutical and Biological Products) (5×10^6/100 μl/mouse). On the next day after inoculation, each kind of inoculated cells were divided randomly into […] with 10 mice per group. FpAT (50 μg/100 μl PBS/injection) and 7 kinds of derivative peptides thereof (see Table 5 below for detailed sequence):FpAT-N3d, FpAT-N6d, FpAT-N9d, FpAT-C3d, FpAT-C6d, FpAT-C9d, FpAT-N5d-C4d, and vehicle control (PBS:100 μl/injection) were injected in angulus oculi medialis vein, with CTX (cyclophosphamide) (80 mg/KG) as positive control daily, 7 times in total. The mice were sacrificed by dislocating the neck on the next day after administration was stopped, and the tumors were taken and weighed for a statistical analysis.

Assay [2] concerns human umbilical vein endothelial cells (HUVECs). In words: Microfilament skeleton of HUVECs by confocal microscope. Type of assay: cell-based. The conditions noted are these: 10, 25, 100 μg/ml; 48, 72, 96 hours. As for the experimental part: Human umbilical cord samples (obtained from Beijing Obstetrics & Gynecology Hospital) was digested with 0.1% collagenase I (available from GIBCO BRL company), followed by a centrifugation (1000 rpm, 10 minutes) to collect human umbilical vein endothelial cells (HUVECs). After suspended in 20% FCS/RPMI1640, the cells were transferred into plastic bottles for culture in CO2 incubator (37° C., 5% CO2). Twelve hours later, unattached cells were discarded by changing medium, and then the remaining cells were cultured conventionally with the medium changed every 3 days. The cultured HUVECs were digested with 0.04% trypsin-EDTA, and inoculated into 24-well plate at 2×10^4 cells/well; and the vehicle (PBS) and FpAT (10 μg/ml, 25 μg/ml, 100 μg/ml) were added separately, with 3 parallel wells per group. […] After washing twice with PBS, Hoechst was added to stain nucleus. After washed once with PBS, the slide was mounted with mounting solution, and stored at 4° C. in the dark. The change of cytoskeleton was observed employing a confocal microscope.

A further assay relates to tumor microvessel. In words: Tumor microvessel density (MVD) by factor VIII immunohistochemistry. Type of assay: in vivo, mice. As for the experimental part: In order to confirm that the suppression of FpAT on tumor growth in mice in vivo is achieved by suppressing angiogenesis, an analysis of microvessel density in tumor was performed in this example by using tumor mass in Examples 4 and 5.
The tumor masses were fixed with formaldehyde, and then cut into serial section of 3 μm. The paraffin sections were dewaxed to water, and incubated in 3% H2O2 at room temperature for 10 minutes, to which rabbit anti-human factor VIII polyclonal antibody (DAKO company) was added dropwise, and after left at 4° C. overnight; 1:200 sheep anti-rabbit IgG labeled with biotin (Beijing ZhongShan bioengineering Company) was added dropwise, and incubated at 37° C. for 30 minutes. […] Then a visual field with most interstitial blood vessels of cancer nest was chosen, and under a ×400 magnitude field, 3 visual fields were counted by 3 observers individually according to double blind method; wherein individual cells and cell clusters stained brown were observed and taken as one blood vessel, whereas blood vessel cavities and erythrocytes therein were not counted, and blood vessel or vessel cavities in muscular layer larger than 50 μm were excluded. The average value of numbers counted by 3 individuals was taken as MVD (microvessel density) result of this case for a statistics analysis, see Table 4.

“H2N-Asp-Ser-Gly-Glu-Gly-Asp-Phe-Leu-Ala-Glu-Gly-Gly-Gly-Val-Arg-COOH (H-DSGEGDFLAEGGGVR-OH; listed as Homo sapiens) [FpAT, fibrinopeptide A truncated, carboxyl terminal 15 amino acids of fibrinopeptide A]”: the tumor suppressing rate in assay [1] is given as 65.4%. The “microfilament disassembly in HUVECs” value in assay [2] is listed as “can induce the microfilament disassembly”. Moreover, the MVD in the assay on tumor microvessel (tumor mass of Examples 4 and 5, 20 visual fields observed totally, PBS group 6.4) is listed as 2.6 Number of micro vessel/visual field. In the assay on tumor microvessel (vs PBS control group, P<0.05), the “growth of microvessel in tumor tissue” value is recorded as “suppressed significantly the growth of microvessel”.
